Patent US6803380B1, “5-aryl-1h-1,2,4-triazole compounds as inhibitors of cyclooxygenase-2 and pharmaceutical compositions containing them” (Laboratoire Theramex, priority 1999, dated 2004)
Read-outs that look alike come from different tables or passages of the source.

Legend:
COX-1 = molecular target: T1, COX-1 (Ovis aries, UniProt P05979); experiment: Inhibition of purified COX-1 activity in vitro (PGE2 by enzymo-immunoassay); format: biochemical, ram; details: for % COX-1 inhibition: negative sign = inhibition
T1 construct: Purified COX-1 from ram seminal vesicles; purchased Cayman Chemicals; host or cells: ram seminal vesicles (tissue-purified)
T1 sequence (P05979 25-600): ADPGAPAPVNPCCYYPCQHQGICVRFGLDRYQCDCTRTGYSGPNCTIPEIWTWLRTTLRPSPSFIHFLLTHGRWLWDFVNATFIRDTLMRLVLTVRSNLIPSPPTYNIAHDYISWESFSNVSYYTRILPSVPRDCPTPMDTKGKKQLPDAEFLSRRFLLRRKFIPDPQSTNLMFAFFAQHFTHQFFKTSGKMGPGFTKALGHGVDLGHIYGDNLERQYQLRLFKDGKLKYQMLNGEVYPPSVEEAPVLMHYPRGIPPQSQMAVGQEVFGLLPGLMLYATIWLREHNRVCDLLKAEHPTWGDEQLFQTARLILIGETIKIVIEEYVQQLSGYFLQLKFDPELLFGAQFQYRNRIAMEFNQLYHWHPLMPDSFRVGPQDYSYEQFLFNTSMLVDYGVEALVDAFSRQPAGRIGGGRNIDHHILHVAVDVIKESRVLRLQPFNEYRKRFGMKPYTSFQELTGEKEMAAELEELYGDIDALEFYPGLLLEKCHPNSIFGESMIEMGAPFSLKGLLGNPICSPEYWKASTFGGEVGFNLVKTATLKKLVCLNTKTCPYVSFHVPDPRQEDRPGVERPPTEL
Experimental: (§1) Example compounds according to the invention were tested for their ability to inhibit COX-1 and/or COX-2 activities in vitro. Purified COX-1 from ram seminal vesicles and purified COX-2 from ewe placenta (both from Cayman Chemicals) were incubated for 10 minutes at 25° C. in the presence of their substrate, arachidonic acid (5 μM), with or without test compounds or standard inhibitors. Prostaglandin E2, the reaction product, was measured by enzymo-immunoassay (R&D Systems). Each individual value results from duplicate determinations. Final inhibition data are means±standard errors of at least (3) independent experiments performed on as many different days.

COX-2 = molecular target: T2, COX-2 (Ovis aries, UniProt P79208); experiment: Inhibition of purified COX-2 activity in vitro (PGE2 by enzymo-immunoassay); format: biochemical, ewe; details: for COX-2 inhibitory potency compared with nimesulide (in words): same concentration, 1 μM
T2 construct: purified COX-2 from ewe placenta; purchased Cayman Chemicals; host or cells: ewe placenta (tissue-purified)
T2 sequence (P79208 17-603): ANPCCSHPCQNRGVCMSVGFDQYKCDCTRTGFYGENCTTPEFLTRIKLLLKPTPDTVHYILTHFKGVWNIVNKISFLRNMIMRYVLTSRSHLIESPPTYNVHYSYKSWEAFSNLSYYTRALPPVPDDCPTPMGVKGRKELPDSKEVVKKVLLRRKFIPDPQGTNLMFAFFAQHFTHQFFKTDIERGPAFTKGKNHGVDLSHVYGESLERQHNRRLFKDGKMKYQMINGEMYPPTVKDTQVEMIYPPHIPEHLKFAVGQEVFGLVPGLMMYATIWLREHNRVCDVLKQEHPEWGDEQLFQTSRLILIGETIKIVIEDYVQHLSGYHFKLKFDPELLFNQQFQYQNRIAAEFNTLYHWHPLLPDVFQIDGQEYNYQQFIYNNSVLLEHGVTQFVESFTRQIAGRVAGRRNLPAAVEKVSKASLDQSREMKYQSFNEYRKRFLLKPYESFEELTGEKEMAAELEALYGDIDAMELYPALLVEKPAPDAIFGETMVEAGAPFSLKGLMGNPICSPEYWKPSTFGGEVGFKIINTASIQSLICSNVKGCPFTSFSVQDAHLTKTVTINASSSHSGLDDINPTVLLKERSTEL
Experimental: as §1

[1] = concentration 1 μM, read-out: % COX-2 inhibition

Which melting point does the source give for Cc1nc(-c2ccc(S(C)(=O)=O)cc2)n(-c2ccc(F)c(F)c2)n1 [Example 13, 1-(3,4-difluoro-phenyl)-3-methyl-5-(4-methylsulfonyl-phenyl)-1H-1,2,4-triazole] here?
Its melting point is 194 °C.

For COc1ccc(-n2nc(C(F)(F)F)nc2-c2ccc(S(C)(=O)=O)cc2)cc1 [Example 17, 1-(4-methoxy-phenyl)-5-(4-methylsulfonyl-phenyl)-3-trifluoromethyl-1H-1,2,4-triazole], which “inhibition of COX-1 (in words)” value (COX-1; concentration 1 μM) is on record?
The value was “did not show any significant inhibition of COX-1”.

What about the “% COX-1 inhibition” value (COX-1; concentration 1 μM) of the same compound?
The value was “+8 ± 2.7%”.

And the “selective inhibition of COX-2 (in words)” value (COX-2; concentration 1 μM)?
Its value is “able to inhibit COX-2 selectively”.

What about the inhibition at 1 µM (COX-2; [1]) of the same compound?
The inhibition at 1 µM was 44 ± 6.8%.

What about the “COX-2 inhibitory potency compared with nimesulide (in words)” value (COX-2) of the same compound?
The value was “even more potent”.

And the melting point?
Its melting point is 156 °C.

Which melting point does the source give for Cc1nc(-c2ccc(S(C)(=O)=O)cc2)n(-c2cccc(Cl)c2)n1 [Example 7, 1-(3-chloro-phenyl)-3-methyl-5-(4-methylsulfonyl-phenyl)-1H-1,2,4-triazole] here?
Its melting point is 130 °C.

Which “inhibition of COX-1 (in words)” value (COX-1; concentration 1 μM) does the source give for COc1ccc(-n2nc(C)nc2-c2ccc(S(C)(=O)=O)cc2)cc1 [Example 10, 1-(4-methoxy-phenyl)-3-methyl-5-(4-methylsulfonyl-phenyl)-1H-1,2,4-triazole] here?
Its value is “did not show any significant inhibition of COX-1”.

What about the “% COX-1 inhibition” value (COX-1; concentration 1 μM) of the same compound?
Its value is −4 ± 14.6%.

What about the “selective inhibition of COX-2 (in words)” value (COX-2; concentration 1 μM) of the same compound?
Its value is “able to inhibit COX-2 selectively”.

What about the inhibition at 1 µM (COX-2; [1]) of the same compound?
Its inhibition at 1 µM is 32 ± 4.5%.

And the melting point?
Its melting point is 128 °C.

Which melting point does the source give for CS(=O)(=O)c1ccc(-c2nc(C(F)(F)F)nn2-c2ccc(S(C)(=O)=O)cc2)cc1 [Example 26, 1,5-di-(4-methylsulfonyl-phenyl)-3-trifluoromethyl-1H-1,2,4-triazole] here?
Its melting point is 214 °C.

For COc1ccc(-n2nc(C(F)(F)F)nc2-c2ccc(S(N)(=O)=O)cc2)cc1 [Example 34, 1-(4-methoxy-phenyl)-5-(4-aminosulfonyl-phenyl)-3-trifluoromethyl-1H-1,2,4-triazole], which “inhibition of COX-1 (in words)” value (COX-1; concentration 1 μM) is on record?
The value was “did not show any significant inhibition of COX-1”.

What about the “% COX-1 inhibition” value (COX-1; concentration 1 μM) of the same compound?
Its value is −16 ± 10%.

What about the “selective inhibition of COX-2 (in words)” value (COX-2; concentration 1 μM) of the same compound?
Its value is “able to inhibit COX-2 selectively”.

And the inhibition at 1 µM (COX-2; [1])?
Its inhibition at 1 µM is 78 ± 2%.

What about the “COX-2 inhibitory potency compared with nimesulide (in words)” value (COX-2) of the same compound?
The value was “even more potent”.

Which melting point does the source give for Cc1ccc(-n2nc(C)nc2-c2ccc(S(C)(=O)=O)cc2)cc1 [Example 4, 3-methyl-1-(4-methyl-phenyl)-5-(4-methylsulfonyl-phenyl)-1H-1,2,4-triazole] here?
The melting point was 176 °C.

With Cc1nc(-c2ccc(S(C)(=O)=O)cc2)n(-c2ccccc2Cl)n1 [Example 6, 1-(2-chloro-phenyl)-3-methyl-5-(4-methylsulfonyl-phenyl)-1H-1,2,4-triazole] as the compound, how does the melting point read?
Its melting point is 170 °C.

For Cc1nc(-c2ccc(S(C)(=O)=O)cc2)n(-c2ccc(Br)cc2)n1 [Example 9, 1-(4-bromo-phenyl)-3-methyl-5-(4-methylsulfonyl-phenyl)-1H-1,2,4-triazole], which melting point is on record?
The melting point was 188 °C.

With COc1ccc(-n2nc(C)nc2-c2ccc(S(C)(=O)=O)cc2)cc1OC [Example 14, 1-(3,4-dimethoxy-phenyl)-3-methyl-5-(4-methylsulfonyl-phenyl)-1H-1,2,4-triazole] as the compound, how does the melting point read?
Its melting point is 186 °C.

With CS(=O)(=O)c1ccc(-c2nc(C(F)(F)F)nn2C2CCCCC2)cc1 [Example 22, 1-(cyclohexyl)-5-(4-methylsulfonyl-phenyl)-3-trifluoromethyl-1H-1,2,4-triazole] as the compound, how does the melting point read?
The melting point was 136 °C.

Which melting point does the source give for CS(=O)(=O)c1ccc(-c2nc(C(F)(F)F)nn2-c2ccc(Cl)cc2)cc1 [Example 21, 1-(4-chloro-phenyl)-5-(4-methylsulfonyl-phenyl)-3-trifluoromethyl-1H-1,2,4-triazole] here?
Its melting point is 190 to 192 °C.

Which melting point does the source give for COc1ccc(-n2nc(C(F)(F)F)nc2-c2ccc(S(C)(=O)=O)cc2)cc1F [Example 33, 1-(3-fluoro-4-methoxy-phenyl)-5-(4-methylsulfonyl-phenyl)-3-trifluoromethyl-1H-1,2,4-triazole] here?
The melting point was 180 °C.

Which melting point does the source give for COc1ccc(Cn2nc(C(F)(F)F)nc2-c2ccc(S(C)(=O)=O)cc2)cc1OC [Example 23, 1-(3,4-dimethoxy-phenyl-methyl)-5-(4-methylsulfonyl-phenyl)-3-trifluoromethyl-1H-1,2,4-triazole] here?
Its melting point is 142 °C.

What does the source list for Cc1nc(-c2ccc(S(C)(=O)=O)cc2)n(-c2ccc(N(C)C)cc2)n1 [Example 15, 1-(4-dimethylamino-phenyl)-3-methyl-5-(4-methylsulfonyl-phenyl)-1H-1,2,4-triazole]?
inhibition of COX-1 (in words) (COX-1; concentration 1 μM): did not show any significant inhibition of COX-1; % COX-1 inhibition (COX-1; concentration 1 μM): +2 ± 7.0%; selective inhibition of COX-2 (in words) (COX-2; concentration 1 μM): able to inhibit COX-2 selectively; inhibition at 1 µM (COX-2; [1]): 18 ± 7%; melting point: 200 °C

Which melting point does the source give for CS(=O)(=O)c1ccc(-c2nc(C(F)(F)F)nn2-c2cccnc2)cc1.Cl here?
The melting point was 180 °C.

Which melting point does the source give for CS(=O)(=O)c1ccc(-c2nc(C(F)(F)F)nn2-c2ccc(F)cc2)cc1 [Example 20, 1-(4-fluoro-phenyl)-5-(4-methylsulfonyl-phenyl)-3-trifluoromethyl-1H-1,2,4-triazole] here?
The melting point was 230 to 232 °C.

Which results are given for CS(=O)(=O)c1ccc(-c2nc(C(F)(F)F)nn2-c2ccc(Br)cc2)cc1 [Example 18, 1-(4-bromo-phenyl)-5-(4-methylsulfonyl-phenyl)-3-trifluoromethyl-1H-1,2,4-triazole]?
inhibition of COX-1 (in words) (COX-1; concentration 1 μM): did not show any significant inhibition of COX-1; % COX-1 inhibition (COX-1; concentration 1 μM): −5 ± 12%; selective inhibition of COX-2 (in words) (COX-2; concentration 1 μM): able to inhibit COX-2 selectively; inhibition at 1 µM (COX-2; [1]): 53%; COX-2 inhibitory potency compared with nimesulide (in words) (COX-2): even more potent; COX-2 potency relative to nimesulide (COX-2; same inhibition at 1 μM vs. 10 μM nimesulide): about 10 times; melting point: 198 °C

For CS(=O)(=O)c1ccc(-c2nc(C(F)(F)F)nn2-c2ccc3c(c2)OCO3)cc1 [Example 28, 1-(3,4-methylenedioxy-phenyl)-5-(4-methylsulfonyl-phenyl)-3-trifluoromethyl-1H-1,2,4-triazole], which melting point is on record?
Its melting point is 185 °C.

Which melting point does the source give for COc1ccc(-n2nc(C(F)(F)F)nc2-c2ccc(S(C)(=O)=O)cc2Cl)cc1 [Example 24, 5-(2-chloro-4-methylsulfonyl-phenyl)-1-(4-methoxy-phenyl)-3-trifluoromethyl-1H-1,2,4-triazole] here?
The melting point was 148 °C.

For Cc1nc(-c2ccc(S(C)(=O)=O)cc2)n(-c2ccc(F)cc2F)n1 [Example 11, 1-(2,4-difluoro-phenyl)-3-methyl-5-(4-methylsulfonyl-phenyl)-1H-1,2,4-triazole], which melting point is on record?
The melting point was 160 °C.

Which melting point does the source give for Cc1nc(-c2ccc(S(C)(=O)=O)cc2)n(-c2ccc(F)cc2)n1 [Example 2, 1-(4-fluoro-phenyl)-3-methyl-5-(4-methylsulfonyl-phenyl)-1H-1,2,4-triazole] here?
Its melting point is 180 °C.

With CS(=O)(=O)Nc1ccc([N+](=O)[O-])cc1Oc1ccccc1 [Nimesulide, reference compound] as the compound, how does the “% COX-1 inhibition” value (COX-1; concentration 0.1 μM) read?
Its value is “+7 ± 6.6%”.

What about the “% COX-1 inhibition” value (COX-1; concentration 1 μM) of the same compound?
The value was “+16 ± 12.2%”.

What about the “% COX-1 inhibition” value (COX-1; concentration 10 μM) of the same compound?
Its value is “+13 ± 8.3%”.

And the inhibition at 0.1 µM (COX-2; read-out: % COX-2 inhibition)?
Its inhibition at 0.1 µM is 23 ± 5.4%.

And the inhibition at 1 µM (COX-2; read-out: % COX-2 inhibition)?
Its inhibition at 1 µM is 30 ± 3.2%.

And the inhibition at 10 µM (COX-2; read-out: % COX-2 inhibition)?
Its inhibition at 10 µM is 50%.

Which melting point does the source give for COc1ccc(-n2nc(C(F)(F)F)nc2-c2ccc(S(C)(=O)=O)cc2)cc1OC [Example 27, 1-(3,4-dimethoxy-phenyl)-5-(4-methylsulfonyl-phenyl)-3-trifluoromethyl-1H-1,2,4-triazole] here?
The melting point was 140 °C.

Which melting point does the source give for Cc1nc(-c2ccc(S(C)(=O)=O)cc2)n(-c2ccc([N+](=O)[O-])cc2)n1 [Example 12, 3-methyl-5-(4-methylsulfonyl-phenyl)-1-(4-nitro-phenyl)-1H-1,2,4-triazole] here?
The melting point was 180 °C.

With Cc1nc(-c2ccc(S(C)(=O)=O)cc2)n(-c2ccccc2)n1 [Example 5, 3-methyl-5-(4-methylsulfonyl-phenyl)-1-phenyl-1H-1,2,4-triazole] as the compound, how does the melting point read?
The melting point was 146 °C.
